Source: the NIST ThermoML archive (doi:10.1021/je700021f)
Numbers after ± are expanded uncertainties.

Columns and labels:
[1] = 101 kPa, Liquid, Pulse-echo method
[2] = xn = mol fraction of the nth substance listed; conditions: 101 kPa, Liquid, Pulse-echo method, x1 = 1

CCCCCCCCCCl [1-chlorononane]
[1]
Conditions	speed of sound [m/s]
293.15 K	1297.2 ± 3.4
298.15 K	1278.2 ± 3.3
303.15 K	1259.5 ± 3.3
308.15 K	1240.9 ± 3.3
313.15 K	1222.5 ± 3.2
318.15 K	1204.3 ± 3.2
323.15 K	1186.3 ± 3.2
328.15 K	1168.4 ± 3.1
333.15 K	1150.7 ± 3.1
338.15 K	1133.2 ± 3.1
343.15 K	1115.9 ± 3.1
348.15 K	1098.8 ± 3
353.15 K	1081.9 ± 3
358.15 K	1065.1 ± 3
363.15 K	1048.5 ± 3
368.15 K	1032.2 ± 2.9
373.15 K	1015.9 ± 2.9
378.15 K	999.1 ± 2.9
383.15 K	982.7 ± 2.9
388.15 K	966.4 ± 2.8
393.15 K	950.3 ± 2.8
398.15 K	934.3 ± 2.8
403.15 K	918.4 ± 2.8
408.15 K	902.6 ± 2.8
413.15 K	887 ± 2.7
418.15 K	871.4 ± 2.7
423.15 K	856 ± 2.7

CCCCCCCCC [nonane]
[1]
Conditions	speed of sound [m/s]
293.15 K	1227.3 ± 3.2
298.15 K	1207.2 ± 3.2
303.15 K	1187.2 ± 3.2
308.15 K	1167.3 ± 3.1
313.15 K	1147.5 ± 3.1
318.15 K	1127.8 ± 3.1
323.15 K	1108.2 ± 3.1
328.15 K	1088.7 ± 3
333.15 K	1069.3 ± 3
338.15 K	1050 ± 3
343.15 K	1030.8 ± 2.9
348.15 K	1011.8 ± 2.9
353.15 K	992.8 ± 2.9
358.15 K	973.9 ± 2.9
363.15 K	955.2 ± 2.8
368.15 K	936.5 ± 2.8
373.15 K	917.9 ± 2.8
378.15 K	899.5 ± 2.8
383.15 K	881.1 ± 2.7
388.15 K	862.9 ± 2.7
393.15 K	844.7 ± 2.7
398.15 K	826.7 ± 2.7
403.15 K	808.8 ± 2.6
408.15 K	790.9 ± 2.6
413.15 K	773.2 ± 2.6
418.15 K	755.6 ± 2.6
423.15 K	738 ± 2.5

CCCCCCCCC [nonane] + CCCCCCCCCCl
[2]
Conditions	speed of sound [m/s]
293.15 K	1227.3 ± 3.2
298.15 K	1207.2 ± 3.2
303.15 K	1187.2 ± 3.2
308.15 K	1167.3 ± 3.1
313.15 K	1147.5 ± 3.1
318.15 K	1127.8 ± 3.1
323.15 K	1108.2 ± 3.1
328.15 K	1088.7 ± 3
333.15 K	1069.3 ± 3
338.15 K	1050 ± 3
343.15 K	1030.8 ± 2.9
348.15 K	1011.8 ± 2.9
353.15 K	992.8 ± 2.9
358.15 K	973.9 ± 2.9
363.15 K	955.2 ± 2.8
368.15 K	936.5 ± 2.8
373.15 K	917.9 ± 2.8
378.15 K	899.5 ± 2.8
383.15 K	881.1 ± 2.7
388.15 K	862.9 ± 2.7
393.15 K	844.7 ± 2.7
398.15 K	826.7 ± 2.7
403.15 K	808.8 ± 2.6
408.15 K	790.9 ± 2.6
413.15 K	773.2 ± 2.6
418.15 K	755.6 ± 2.6
423.15 K	738 ± 2.5
